In brackets after ≈: the same amount, converted by molar mass.

What all share (assay): Agar dilution test (Isosensitest medium / Denley multipoint inoculator), MIC
Holding throughout (format): cell-based

Experiment [1] deals with Klebsiella pneum. 8085. As to conditions: read-out: Minimale Hemmkonzentration. An excerpt: (§1) In der nachstehenden Tabelle sind die MHK-Werte einiger der erfindungsgemäßen Verbindungen angegeben.
In experiment [2] the test system is E. coli T 7. As to conditions: Escherichia coli, T7, read-out: Minimale Hemmkonzentration.
Text: as §1

Experiment [3] deals with Staphylococcus aur. 133. As to conditions: read-out: Minimale Hemmkonzentration.
Text: as §1

The subject of experiment [4] is Klebsiella pneum. 63. As to conditions: read-out: Minimale Hemmkonzentration.
Text: as §1

Experiment [5] has as its system Proteus morg. 932. As to conditions: read-out: Minimale Hemmkonzentration.
Text: as §1

In experiment [6] the test system is E. coli Neum. As to conditions: Escherichia coli, read-out: Minimale Hemmkonzentration.
Text: as §1

The test system of experiment [7] is Proteus vulg. 1017. As to conditions: read-out: Minimale Hemmkonzentration.
Text: as §1

Take `O=C(O)c1cn(C2CC2)c2cc([N+](=O)[O-])c(Cl)cc2c1=O` [Beispiel 1, 6-Chlor-1-cyclopropyl-7-nitro-1,4-dihydro-4-oxo-3-chinolincarbonsäure]: the MIC was 32 µg/mL (≈ 104 µM) in experiment [1]; 64 µg/mL (≈ 207 µM) in experiment [2]; greater than 128 µg/mL in experiment [3]; greater than 128 µg/mL in experiment [4]; greater than 128 µg/mL in experiment [5]; 32 µg/mL (≈ 104 µM) in experiment [6]. Also, the MIC in experiment [7] was greater than 128 µg/mL.
As to `CN(C)n1cc(C(=O)O)c(=O)c2ccccc21` [Beispiel 4, 1-Dimethylamino-1,4-dihydro-4-oxo-3-chinolincarbonsäure], the MIC in experiment [1] was 64 µg/mL (≈ 276 µM); in experiment [2] it was 64 µg/mL (≈ 276 µM); in experiment [3], greater than 128 µg/mL; in experiment [4], greater than 128 µg/mL; in experiment [5], 128 µg/mL (≈ 551 µM); in experiment [6], 32 µg/mL (≈ 138 µM). Also, in experiment [7], the MIC came to 128 µg/mL (≈ 551 µM).
`O=C(O)c1cn(C2CC2)c2cccc([N+](=O)[O-])c2c1=O` [Beispiel 6, 1-Cyclopropyl-5-nitro-1,4-dihydro-4-oxo-3-chinolincarbonsäure]: the MIC in experiment [1] was 128 µg/mL (≈ 467 µM); in experiment [2], 32 µg/mL (≈ 117 µM); in experiment [3], greater than 128 µg/mL; in experiment [4] it was 128 µg/mL (≈ 467 µM); in experiment [5], 64 µg/mL (≈ 233 µM); in experiment [6] it was 32 µg/mL (≈ 117 µM). In addition, the MIC in experiment [7] is 64 µg/mL (≈ 233 µM).
As for `O=C(O)c1cn(C2CC2)c2cc([N+](=O)[O-])ccc2c1=O` [Beispiel 7, 1-Cyclopropyl-7-nitro-1,4-dihydro-4-oxo-3-chinolincarbonsäure], the MIC came to 0.06 µg/mL (≈ 0.219 µM) in experiment [1]; 32 µg/mL (≈ 117 µM) in experiment [3]; 0.5 µg/mL (≈ 1.82 µM) in experiment [4]; 0.25 µg/mL (≈ 0.912 µM) in experiment [5]; 0.25 µg/mL (≈ 0.912 µM) in experiment [7].

Values taken from patent EP0168733A2, “Process for the preparation of quinolinone and naphthyridoncarboxylic acids” (BAYER AG, priority 1984, dated 1986).
